Results published in US20040082773A1, “Modified PAR receptors, their preparation and their uses for selecting compounds which modulate PAR activity” (Pfizer Inc., priority 2002, published 2004).
Blank lines part the entries; values can stand above or below the molecule they belong to. Where no end group is shown, it is not given here.

Tests used:
CHO-NFAT cells [1] = assay: Calcium release direct measurement (FLIPR), CHO-NFAT control cells; type: cell-based
Procedure: (§1) The cells used for these tests were: CHO-NFAT-PAR-2-MUT2, CHO-NFAT-PAR-2-MUT3, CHO-NFAT-PAR2-WT and CHO-NFAT-WT.
The day before the experiment, cells were seeded into 384 well-plate in a complete medium at 25000 cells/well/50 μL.
The day after, the medium was discarded (by turning the plate). 50 μl of HBSS, hepes 20 mM were added to each well, HBSS was then discarded by turning the plate. This was done twice.
10 ml of Calcium kit loading solution (solution prepared as described above) and 10 ml HBSS, hepes 20 mM and 200 μl probenecid 250 μM were mixed, and 30 μl of this solution per well were added, plates were incubated during 2 hours at 37° C. 5% CO2.
1.2 μl of compound to be tested (250 μM, 25% DMSO) and 3.8 μl HBSS, hepes 20 mM were added (on the Minitrak Va.). 25 μl 72 nM Trypsin was then added using the FLIPR.
The fluorescence was measured on the FLIPR as specified above.

PAR-2Mut2 receptor [2] = molecular target: T1, PAR-2Mut2 receptor (Homo sapiens, UniProt P55085); assay: Calcium release direct measurement (FLIPR), CHO-NFAT-PAR-2Mut2 cells; type: cell-based
T1 construct: indeed comprising amino acids 43 to 397 of the precursor of human PAR-2; expressed in transfected cells
T1 sequence (P55085 43-397): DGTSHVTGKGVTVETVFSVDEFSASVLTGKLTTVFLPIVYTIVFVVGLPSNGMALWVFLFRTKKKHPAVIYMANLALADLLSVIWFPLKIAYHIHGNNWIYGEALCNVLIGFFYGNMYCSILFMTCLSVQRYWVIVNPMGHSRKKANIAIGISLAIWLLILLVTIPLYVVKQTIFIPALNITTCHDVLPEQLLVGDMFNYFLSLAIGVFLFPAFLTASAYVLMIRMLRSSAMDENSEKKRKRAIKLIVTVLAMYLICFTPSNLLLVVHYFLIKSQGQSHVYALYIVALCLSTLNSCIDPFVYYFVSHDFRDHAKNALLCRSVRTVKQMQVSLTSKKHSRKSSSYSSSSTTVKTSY
Procedure: as §1
(§2) The day before the experiment, the cells, were seeded into 384 well-plate in a medium DMEM glutamax (ref: 61965-026 Invitrogen, fetal calf serum 10% (ref: 10270106 Invitrogen), gentamycin 50 mg/ml 0.25% (ref: 15750-037 Invitrogen) at 25000 cells/well/50 μL.
(§3) The day of the experiment, the medium was discarded (by turning the plate). 50 μl of HBSS (Invitrogen réf: 14025.050), hepes (Invitrogen ref: 15630-05620 mM) were added to each well, HBSS was then discarded by turning the plate. 10 ml of Calcium kit loading solution and 10 ml HBSS, hepes 20 mM and 200 μl probenecid 250 μM were mixed and then 30 μl of this solution was added per well; plates were then incubated during 2 hours at 37° C. 4% CO2. 1.2 μl of a 250 μM compound in 25% DMSO to be tested and 3.8 μl HBSS, hepes 20 mM were added (on the Minitrak Va., Packard), the plates are transferred to the FLIPR and 25 μl 7.2 μM SLIGRL were added.
(§4) The dye is excited with the 488 nm excitation line of the argon laser and emits at 550 nm. The FLIPR quantifies the release of intracellular calcium in real time, the fluorescence is measured during 90 seconds.

PAR-2Mut2 receptor [3] = molecular target: T1, PAR-2Mut2 receptor; assay: Beta-lactamase reporter assay, CHO-NFAT-PAR-2Mut2 cells; type: cell-based; conditions: FIG. 6
Procedure: In a 96-well or 384-well microplate, […] the wild-type PAR-2 receptor (CHO-NFAT-PAR-2WT) or the CHO-NFAT cells expressing the PAR-2Mut2 receptor (CHO-NFAT-PAR-2mut2), in a proportion of 4×10^4 for a 96-well plate or 1×10^4 for a 384-well plate, for 4 hours, at 37° C., in an atmosphere containing 5% CO2 and in a modified Dulbecco medium (Lifetech, Gaithersburg, Md.) containing 100 μg/ml of gentamycin. The cells were placed in the dark for 1 hour at ambient temperature with 12 μM of CCF4-AM (Aurora Biosciences, San Diego, Calif.). The fluorescence was measured with a Fluostar fluorimeter (BMG, Germany). The excitation occurs at 405 nm and the emission is recorded at both 460 and 535 nm. The fluorescence ratio (460 nm/535 nm) is estimated after elimination of the background noise (medium without cells). The ED50 is considered to be the concentration of SLIGRL-NH2 necessary to achieve 50% of the maximum fluorescence ratio.
The CHO-NFAT-beta-lactamase cells stimulated with SLIGRL-NH2 in the medium mentioned above (4×10^4 cells/well) were used as control. All the reagents were added with the activating agent (chemical or referenced compounds), unless otherwise indicated.

PAR-2Mut3 receptor = molecular target: T2, PAR-2Mut3 receptor (Homo sapiens, UniProt P55085); assay: Calcium release direct measurement (FLIPR), CHO-NFAT-PAR2-Mut3 cells; type: cell-based
T2 construct: indeed comprising amino acids 57 to 397 of the precursor of human PAR-2; expressed in transfected cells
T2 sequence (P55085 57-397): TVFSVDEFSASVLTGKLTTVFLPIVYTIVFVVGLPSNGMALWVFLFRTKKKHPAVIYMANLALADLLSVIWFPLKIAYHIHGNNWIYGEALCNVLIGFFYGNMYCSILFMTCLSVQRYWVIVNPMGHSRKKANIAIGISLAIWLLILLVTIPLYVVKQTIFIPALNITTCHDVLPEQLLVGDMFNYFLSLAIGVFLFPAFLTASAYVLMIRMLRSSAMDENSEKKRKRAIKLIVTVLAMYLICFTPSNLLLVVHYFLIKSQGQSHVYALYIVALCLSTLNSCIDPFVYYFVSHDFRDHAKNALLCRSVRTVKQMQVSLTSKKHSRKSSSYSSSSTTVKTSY
Procedure: as §1, §2, §3, §4

CHO-NFAT cells [4] = assay: Beta-lactamase reporter assay, CHO-NFAT control cells; type: cell-based
[5] = molecular target: T3, wild-type PAR-2 receptor expressed on CHO-NFAT cells (CHO-NFAT-PAR-2WT) (human, UniProt P55085 37-397); assay: cell-based or functional assay
T3 sequence (looked up): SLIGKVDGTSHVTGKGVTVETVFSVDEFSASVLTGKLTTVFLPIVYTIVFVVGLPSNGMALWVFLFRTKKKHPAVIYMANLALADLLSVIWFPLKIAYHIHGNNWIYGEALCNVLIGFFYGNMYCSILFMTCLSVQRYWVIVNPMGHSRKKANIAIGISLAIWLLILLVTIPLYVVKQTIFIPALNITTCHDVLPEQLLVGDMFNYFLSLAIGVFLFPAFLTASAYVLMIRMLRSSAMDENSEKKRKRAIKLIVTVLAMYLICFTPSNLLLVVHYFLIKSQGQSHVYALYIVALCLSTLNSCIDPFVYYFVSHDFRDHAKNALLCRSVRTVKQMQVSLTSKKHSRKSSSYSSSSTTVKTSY

[6] = molecular target: T4, truncated PAR-2 receptor PAR-2Mut2 expressed on CHO-NFAT cells (CHO-NFAT-PAR-2Mut2) (human, UniProt P55085 43-397); assay: cell-based or functional assay
T4 sequence: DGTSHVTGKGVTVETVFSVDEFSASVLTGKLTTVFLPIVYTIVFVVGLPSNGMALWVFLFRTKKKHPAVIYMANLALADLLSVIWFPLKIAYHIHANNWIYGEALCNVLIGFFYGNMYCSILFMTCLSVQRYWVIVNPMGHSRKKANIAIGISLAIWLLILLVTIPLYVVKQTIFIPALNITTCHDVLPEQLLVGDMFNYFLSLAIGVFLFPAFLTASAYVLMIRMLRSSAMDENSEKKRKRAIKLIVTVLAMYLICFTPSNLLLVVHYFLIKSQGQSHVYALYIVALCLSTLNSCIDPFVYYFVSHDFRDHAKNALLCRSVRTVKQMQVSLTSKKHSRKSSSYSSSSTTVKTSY

Activation of cells by trypsin (FLIPR calcium release) (PAR-2Mut2 receptor [2]; CHO-NFAT-PAR2-MUT2 cells): not activated | Activation of cells by trypsin (beta-lactamase fluorescence) (PAR-2Mut2 receptor [3]): not activated | Activation of cells by trypsin (FLIPR calcium release) (PAR-2Mut3 receptor): not activated
Molecule: trypsin
Activation of cells by trypsin (FLIPR calcium release) (CHO-NFAT cells [1]): not activated | Activation of cells by trypsin (beta-lactamase fluorescence) (CHO-NFAT cells [4]): not activated

Fluorescence after stimulation, compared with CHO-PAR2-WT cells (PAR-2Mut2 receptor [2]; CHO-NFAT-PAR-2Mut2 cells, SLIGRL-NH2 0.1 μM to 100 μM): higher
Molecule: SLIGRL [SLIGRL-NH2, synthetic ligand (Neosystème)]

ED50 (beta-lactamase reporter, fluorescence ratio 460 nm/535 nM) [5]: 10 µM | ED50 (beta-lactamase reporter, fluorescence ratio 460 nm/535 nM) [6]: 0.2 µM
Molecule: SLIGRL-NH2 [SLIGRL-NH2 synthetic ligand]
